Publication PMC5908134, “Saccharomyces cerevisiae as a platform for assessing sphingolipid lipid kinase inhibitors” (PLoS ONE, 2018)
“Also recorded” adds a separate entry of the source.

How the values were obtained:
human CerK = target: T1, human CerK (Homo sapiens, UniProt Q8TCT0); assay: yeast growth rescue assay, strain JS1256 (WT) expressing human CerK; format: cell-based; settings: galactose media
T1 construct: constructed by sub-cloning DNA encoding the indicated translational open reading frames into the pYES2-FLAG-URA expression vector; expressed in transfected cells; host or cells: Saccharomyces cerevisiae JS1256, plasmid pGAL-HsCERK
T1 sequence (Q8TCT0 1-537): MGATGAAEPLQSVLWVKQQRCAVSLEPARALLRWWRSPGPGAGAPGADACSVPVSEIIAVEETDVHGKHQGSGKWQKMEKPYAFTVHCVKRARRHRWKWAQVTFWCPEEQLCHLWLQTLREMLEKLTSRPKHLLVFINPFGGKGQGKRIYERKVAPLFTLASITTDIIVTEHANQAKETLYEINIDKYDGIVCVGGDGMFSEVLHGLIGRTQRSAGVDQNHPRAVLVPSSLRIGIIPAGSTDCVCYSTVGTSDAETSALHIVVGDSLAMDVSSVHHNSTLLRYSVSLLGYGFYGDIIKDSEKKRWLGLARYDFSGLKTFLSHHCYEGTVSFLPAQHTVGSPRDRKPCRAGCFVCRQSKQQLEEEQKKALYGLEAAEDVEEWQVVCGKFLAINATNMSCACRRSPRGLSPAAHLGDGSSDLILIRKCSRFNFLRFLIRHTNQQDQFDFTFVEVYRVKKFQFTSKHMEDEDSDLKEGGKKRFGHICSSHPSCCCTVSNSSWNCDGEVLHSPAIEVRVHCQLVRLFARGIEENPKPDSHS
Text: (§1) The yeast strains used in this study include JS1256 (MATa his3Δ1 leu2Δ0 met15Δ0 ura3Δ0) and CBY169 (MATα leu2-3,112 ura3-52 his4 trp1 rme1 dpl1Δ::TRP1 lcb3Δ::LEU2 lcb4Δ::kanMX lcb5Δ::kanMX) (the latter provided by Kyle Cunningham). The CBY169 strain was modified further by replacement of the PDR5 gene with a selectable marker (confers resistance to clonat) to generate strain KYA1 (MATα leu2-3,112 ura3-52 his4 trp1 rme1 dpl1Δ::TRP1 lcb3Δ::LEU2 lcb4Δ::kanMX lcb5Δ::kanMX pdr5Δ::natMX).
(§2) The plasmids pGAL-HsSPHK1, pGAL-HsSPHK2, pGAL-MmSphk1, pGAL-MmSphk1L277M, pGAL-MmSphk2, pGAL-HsCERK and pGAL-SK2_MOD used in this study were constructed by sub-cloning DNA encoding the indicated translational open reading frames into the pYES2-FLAG-URA expression vector (provided by Dr. Cungui Mao). The encoded proteins all have an amino terminal FLAG epitope tag ([…]) and their expression is under the control of the GAL1,10 promoter. Excepting human and mouse SphK2, the DNA sequences are synthetic (from GeneWiz LLC (South Plainfield, NJ)) and were optimized for expression in S. cerevisiae.

[1] = system: human and rat SphK1 and SphK2; set-up: method as in PMID 26243740; settings: cited from earlier work
yeast strain CBY169 = assay: toxicity for yeast (growth of strains without lipid kinase expression); settings: yeast strain CBY169
Experimental: (§3) Yeast harboring plasmids were selected and maintained on synthetic complete media lacking uracil (SC-URA) with 2% glucose as the fermentable carbon source. After overnight growth at 30°C in this media, the cultures were diluted 1:100 into SC-URA media supplemented with 2% galactose and various concentrations of test inhibitor. After a further 24–48 hours incubation at 30°C, the extent of growth was assessed by measuring absorbance at 600 nm. […] Tubes were incubated in a rotating drum while plates were agitated using a plate mixer. A600 for 96-well plate cultures was determined using a Molecular Devices SpectraMax M5 plate reader. Test compounds were dissolved in DMSO at 40–50 mM and diluted into water containing 0.1% fatty acid free bovine serum albumin. In all cases, the DMSO concentration in the assay was less than 2% (v/v).
The salient limitations of the yeast assay are those of any cell-based assay. Namely, the assay reports EC50 values rather than Km, Vmax or kcat values of inhibitors, test compounds must not be markedly cytotoxic at the concentrations tested and compounds must accumulate to some extent in the yeast. Cytotoxicity is readily discerned by testing compounds for an effect on growth of strains without lipid kinase expression.

human SphK1 [2] = target: T2, human SphK1 (Homo sapiens, UniProt Q9NYA1); assay: yeast growth rescue assay, strain CBY169 expressing human SphK1; format: cell-based; settings: for rescue of growth in galactose media: strain CBY169 expressing human SphK1
T2 construct: constructed by sub-cloning DNA encoding the indicated translational open reading frames into the pYES2-FLAG-URA expression vector; expressed in transfected cells; host or cells: Saccharomyces cerevisiae CBY169 or KYA1, plasmid pGAL-HsSPHK1
T2 sequence (Q9NYA1 whole entry): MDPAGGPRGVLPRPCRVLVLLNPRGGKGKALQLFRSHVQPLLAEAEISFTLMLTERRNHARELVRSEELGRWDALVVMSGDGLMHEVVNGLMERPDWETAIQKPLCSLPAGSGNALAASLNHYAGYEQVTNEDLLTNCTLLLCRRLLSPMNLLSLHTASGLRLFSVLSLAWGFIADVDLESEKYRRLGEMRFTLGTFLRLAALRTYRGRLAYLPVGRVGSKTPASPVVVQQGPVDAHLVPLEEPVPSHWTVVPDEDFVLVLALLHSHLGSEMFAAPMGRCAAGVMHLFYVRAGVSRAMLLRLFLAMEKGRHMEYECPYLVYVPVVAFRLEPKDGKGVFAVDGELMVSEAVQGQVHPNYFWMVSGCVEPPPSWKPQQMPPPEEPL
Text: (§4) The plasmids pGAL-HsSPHK1, pGAL-HsSPHK2, pGAL-MmSphk1, pGAL-MmSphk1L277M, pGAL-MmSphk2, pGAL-HsCERK and pGAL-SK2_MOD used in this study were constructed by sub-cloning DNA encoding the indicated translational open reading frames into the pYES2-FLAG-URA expression vector (provided by Dr. Cungui Mao). […] Excepting human and mouse SphK2, the DNA sequences are synthetic (from GeneWiz LLC (South Plainfield, NJ)) and were optimized for expression in S. cerevisiae.
as §3

mouse SphK1 L277M = target: T3, mouse SphK1 L277M (Mus musculus, UniProt Q8CI15, L271M); assay: yeast growth rescue assay, mouse SphK1 L277M mutant versus wild type mouse SphK1; format: cell-based
T3 construct: constructed by sub-cloning DNA encoding the indicated translational open reading frames into the pYES2-FLAG-URA expression vector; expressed in transfected cells; host or cells: Saccharomyces cerevisiae (CBY169, printed 'CYA169', and KYA1), plasmid pGAL-MmSphk1L277M
T3 sequence (Q8CI15 1-388 isoform Q8CI15-2 L277M): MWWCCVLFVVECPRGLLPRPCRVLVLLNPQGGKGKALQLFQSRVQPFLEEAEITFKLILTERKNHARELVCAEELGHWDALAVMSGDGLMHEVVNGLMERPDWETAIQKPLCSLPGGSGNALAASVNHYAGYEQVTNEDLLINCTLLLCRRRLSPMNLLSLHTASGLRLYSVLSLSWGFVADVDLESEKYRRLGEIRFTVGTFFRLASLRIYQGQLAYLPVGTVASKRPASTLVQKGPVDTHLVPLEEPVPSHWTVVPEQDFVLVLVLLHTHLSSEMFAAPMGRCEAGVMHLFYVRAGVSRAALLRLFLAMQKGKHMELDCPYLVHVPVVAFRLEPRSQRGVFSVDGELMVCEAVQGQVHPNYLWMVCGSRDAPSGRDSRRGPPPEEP
Text: as §4

human SphK2 [3] = target: T4, human SphK2 (Homo sapiens, UniProt Q9NRA0); assay: yeast growth rescue assay, strain CBY169 expressing human SphK2; format: cell-based
T4 construct: full length (wild type hSK2); expressed in transfected cells; host or cells: Saccharomyces cerevisiae CBY169 or KYA1, plasmid pGAL-HsSPHK2
T4 sequence (Q9NRA0 1-618 isoform Q9NRA0-2): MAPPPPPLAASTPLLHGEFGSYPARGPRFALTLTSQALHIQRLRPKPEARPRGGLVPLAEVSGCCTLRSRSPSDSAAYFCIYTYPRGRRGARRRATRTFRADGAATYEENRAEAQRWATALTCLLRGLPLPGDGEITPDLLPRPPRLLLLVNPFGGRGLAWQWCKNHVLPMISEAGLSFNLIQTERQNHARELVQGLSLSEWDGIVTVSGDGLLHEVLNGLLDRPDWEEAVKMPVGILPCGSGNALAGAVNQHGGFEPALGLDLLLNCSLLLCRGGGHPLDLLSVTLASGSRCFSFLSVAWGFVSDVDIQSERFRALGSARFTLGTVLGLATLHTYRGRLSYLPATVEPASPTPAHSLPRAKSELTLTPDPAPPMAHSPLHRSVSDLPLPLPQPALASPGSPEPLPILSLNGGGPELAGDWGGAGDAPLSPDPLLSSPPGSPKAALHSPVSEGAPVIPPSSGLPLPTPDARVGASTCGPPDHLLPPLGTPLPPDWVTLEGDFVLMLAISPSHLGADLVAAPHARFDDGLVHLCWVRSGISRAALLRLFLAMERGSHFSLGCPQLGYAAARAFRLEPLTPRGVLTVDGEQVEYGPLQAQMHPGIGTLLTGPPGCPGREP
Text: as §4

recombinant human SphK1 = target: recombinant human SphK1; set-up: method as in PMID 21216217; settings: determined previously; cited from earlier work
[4] = target: T5, human SphK2 deletion mutant 11–1 (12–137 & 371–436 deleted) (Homo sapiens, UniProt Q9NRA0, D462G/DEL396-461/E171D/G163S/G648A); assay: yeast growth rescue, CBY169, human SphK2 deletion mutant 11–1; format: cell-based; settings: mutant 11–1 (191 aa deleted)
T5 construct: a set of mutants lacking portions of the non-SphK1 overlapping amino acids of human SphK2; expressed in transfected cells; host or cells: Saccharomyces cerevisiae CBY169
T5 sequence (Q9NRA0 with tags, fused parts or gaps isoform Q9NRA0-2 G127S/E135D/DEL360-425/D426G/G612A): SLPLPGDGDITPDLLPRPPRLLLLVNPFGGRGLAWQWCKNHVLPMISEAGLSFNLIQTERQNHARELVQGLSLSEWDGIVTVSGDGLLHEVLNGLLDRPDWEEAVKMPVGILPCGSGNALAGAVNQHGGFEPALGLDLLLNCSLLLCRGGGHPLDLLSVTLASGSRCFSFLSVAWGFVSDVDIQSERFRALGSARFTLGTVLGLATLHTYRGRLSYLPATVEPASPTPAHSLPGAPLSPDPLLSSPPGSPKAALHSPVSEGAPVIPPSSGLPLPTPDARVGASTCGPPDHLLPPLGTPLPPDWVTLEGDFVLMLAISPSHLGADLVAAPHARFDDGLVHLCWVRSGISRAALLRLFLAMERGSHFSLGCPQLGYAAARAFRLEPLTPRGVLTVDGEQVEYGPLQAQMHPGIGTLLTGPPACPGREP
Text: While some of the nucleotide changes were translationally silent, the altered human SphK2 (termed ‘SK2_MOD’) DNA encoded five amino acid changes (Glu71Asp, Gly138Ser, Glu146Asp, Glu437Gly, Gly623Ala).

human SphK2 [5] = target: T4, human SphK2; assay: yeast growth rescue assay, strain KYA1 (PDR5 deleted) expressing human SphK2; format: cell-based
Text: as §1, §2

human SphK2 [6] = target: T4, human SphK2; assay: LCMS of phospho-LCBs in yeast expressing human SphK2; format: cell-based; settings: yeast with pGAL-HsSPHK2, galactose media, 6 hours, inhibitor 300 nM
Experimental: Cell pellets (approximately 5 million cells) were mixed with 2 mL of a 3:1 methanol/chloroform mixture and transferred to a capped glass vial. To this suspension was added 10 μL of internal standard solution containing 1 μM d7S1P (deuterated sphingosine 1-phosphate) (Avanti Polar Lipids). The mixture was homogenized in a bath sonicator for 10 min and incubated at 48°C for 16 h. The mixture was then cooled to room temperature and mixed with 200 μL of 1 M KOH in methanol. The samples were again sonicated and incubated at 37°C for 2 h. After this time, the samples were neutralized through the addition of 20 μL of glacial acetic acid and transferred to 2 mL microcentrifuge tubes. […] Immediately before LCMS analysis, the material was dissolved in 300 μL of methanol, clarified by centrifuged at 12,000 x g for 12 min at 4°C, and analyzed by LCMS.
Analyses were performed using a triple quadrupole mass spectrometer (Sciex 4000 Q-Trap) coupled to a Shimadzu LC-20AD liquid chromatography system. […] Sphingolipids were detected using MRM (multiple reaction monitoring) methods as follows: d7S1P (387.4→271.3); dhS1P (382.4→266.4); dhSph (dihydroSphingosine) (302.5→60.0); phytoS1P (398.3→300.4) and phytosSph (318.4→282.3).
Yeast were cultured for 6 hours in the indicated media; inhibitors were present at 300 nM. Sphingolipids in cell pellets were analyzed by LCMS (see Methods for details).

sphingosine kinase = target: sphingosine kinase; set-up: method as in PMID 21216217; settings: cited from earlier work
human SphK1 [7] = target: T2, human SphK1; assay: yeast growth rescue assay, strain KYA1 (PDR5 deleted) expressing human SphK1; format: cell-based
Text: as §4, §3

SMILES: O=C(Nc1nc2ccc(NC(=O)C34CC5CC(CC(C5)C3)C4)cc2s1)c1ccccc1 [NVP-231]
- rescue of growth (human CerK): growth was restored in a dose dependent fashion

SMILES: CCCCCOc1ccc2cc(-c3noc([C@@H]4[C@@H](O)CCN4C(=N)N)n3)ccc2c1 [SLC5111312]
- potency at SphK1 versus SphK2 [1]: equipotent
- concentrations at which toxic for yeast (yeast strain CBY169): 2000 to 3000 nM
- rescue of growth in galactose media (human SphK1 [2]): restored full growth
- EC50 values for mutant mouse enzyme versus human enzyme (mouse SphK1 L277M; mouse SphK1 L277M versus human SphK1, yeast growth rescue): similar
- potency at mutant (L277M) versus wild type mouse SphK1 (mouse SphK1 L277M; yeast growth rescue): distinctly more potent
- rescue of growth (human SphK2 [3]): rescued growth

SMILES: CCCCCCCc1ccc(NC(=O)[C@@H](N)CCO)cc1 [9ab]
- Ki (recombinant human SphK1): 1400 to 1700 nM
- EC50 (human SphK1 [2]): 900 nM

SMILES: CCCCCCCCOc1ccc(-c2noc([C@@H]3CCCN3C(=N)N)n2)cc1C(F)(F)F [SLM6031434]
- loss of potency [4]: ~3 fold
- concentrations at which toxic for yeast (yeast strain CBY169): 2000 to 3000 nM
- potency in CBY169 vs. KYA1 strains (PDR5p status) (human SphK2 [5]; presence (CBY169) or absence (KYA1) of PDR5): the same; also recorded: not different
- phospho-LCB levels (human SphK2 [6]): decreased
- rescue of growth (human SphK2 [3]): rescued growth

SMILES: Oc1ccc(Nc2nc(-c3ccc(Cl)cc3)cs2)cc1 [SKI-II]
- Ki (sphingosine kinase): 12000 to 30000 nM
- rescue of growth (human SphK1 [7]): failed to rescue growth
- concentrations at which toxic for yeast (yeast strain CBY169): above 3 μM
- rescue of growth in galactose media (human SphK1 [2]): failed to rescue growth
- rescue of growth (human SphK2 [5]; strain KYA1 expressing human SphK2): failed to rescue growth
- rescue of growth (human SphK2 [3]): failed to rescue growth
